Assays:
[1] = Forced degradation study (solid state stability) of Tafamidis Form C1; type: physicochemical
Text: Forced degradation is synonymous with stress testing and purposeful degradation. Purposeful degradation can be a useful tool to predict the stability of a drug substance or a drug product with effects on purity, potency, and safety. It is imperative to know the impurity profile and behavior of a drug substance under various stress conditions. Forced degradation also plays an important role in the development of analytical methods, setting specifications, and design of formulations under the quality-by-design (QbD) paradigm. The nature of the stress testing depends on the individual drug substance and the type of drug product (e.g., solid oral dosage, lyophilized powders, and liquid formulations) involved.
A forced degradation study was performed to generate potential degradation products and assess stability liabilities. Tafamidis form C1 prepared as per the present disclosure was subjected to forced degradation study with below specified conditions. […] The samples were analysed at pre-determined time intervals for PXRD, HPLC purity and water content. […] The forced degradation results for Tafamidis Form C1 are tabulated below in Table 1.

[2] = Indicative stability of Tafamidis Form C1 on storage up to 6 months; type: physicochemical
Method: The stability of Tafamidis form C1 prepared as per the present disclosure was studied by storing the samples at 2-8° C., 25° C./60% RH; and 40° C./75% RH storage conditions upto 6 months. The samples were analysed for PXRD, HPLC purity and water content at pre-determined time intervals of 1M, 2M, 3M and 6M.
The stability data collected after 6 months of storage are tabulated below in Table 2.

O=C(O)c1ccc2nc(-c3cc(Cl)cc(Cl)c3)oc2c1 [Form C1, 2-(3,5-Dichlorophenyl)-1,3-benzoxazole-6-carboxylic acid]
Description ([1]; 0 D, Initial): off-white powder | HPLC Purity ([1]; 0 D, Initial): 99.98 | PXRD ([1]; 0 D, Initial): Form C1 | Water content KF ([1]; 0 D, Initial): 0.57% | Description ([1]; 5 D, 60°C/80% RH): off-white powder | HPLC Purity ([1]; 5 D, 60°C/80% RH): 99.97 | Water content KF ([1]; 5 D, 60°C/80% RH): 0.62% | Description ([1]; 6 Hours (DHS), 105° C.): off-white powder | HPLC Purity ([1]; 6 Hours (DHS), 105° C.): 99.98 | Description ([1]; 6 Hours, 120° C.): off-white powder | HPLC Purity ([1]; 6 Hours, 120° C.): 99.99 | Description ([1]; 7 D, 25° C./60% RH Closed cup): off-white powder | HPLC Purity ([1]; 7 D, 25° C./60% RH Closed cup): 99.98 | Water content KF ([1]; 7 D, 25° C./60% RH Closed cup): 0.42% | Description ([1]; 7 D, 25° C./60% RH Open cup): off-white powder | HPLC Purity ([1]; 7 D, 25° C./60% RH Open cup): 99.98 | Water content KF ([1]; 7 D, 25° C./60% RH Open cup): 0.48% | Description ([1]; 7 D, 40° C./75% RH Closed cup): off-white powder | HPLC Purity ([1]; 7 D, 40° C./75% RH Closed cup): 99.98 | Water content KF ([1]; 7 D, 40° C./75% RH Closed cup): 0.45% | Description ([1]; 7 D, 40° C./75% RH Open cup): off-white powder | HPLC Purity ([1]; 7 D, 40° C./75% RH Open cup): 99.98 | Water content KF ([1]; 7 D, 40° C./75% RH Open cup): 0.72% | Description ([1]; 10 TORR): off-white powder | HPLC Purity ([1]; 10 TORR): 99.99 | degradation under stress conditions ([1]; any of the stress conditions): did not show any degradation | change with respect to PXRD, HPLC purity and water content ([1]; forced degradation, all conditions of Table 1): no significant change | Description ([2]; 0, Initial): Off-white colour | HPLC Purity ([2]; 0, Initial): 99.99 | PXRD ([2]; 0, Initial): Form C1 | Water content KF ([2]; 0, Initial): 0.34% | Description ([2]; 1 month, 2-8° C.): Off-white colour | HPLC Purity ([2]; 1 month, 2-8° C.): 99.98 | Water content KF ([2]; 1 month, 2-8° C.): 0.88% | Description ([2]; 1 month, 25° C./60% RH): Off-white colour | HPLC Purity ([2]; 1 month, 25° C./60% RH): 99.98 | Water content KF ([2]; 1 month, 25° C./60% RH): 0.85% | Description ([2]; 1 month, 40° C./75% RH): Off-white colour | HPLC Purity ([2]; 1 month, 40° C./75% RH): 99.99 | Water content KF ([2]; 1 month, 40° C./75% RH): 0.8% | Description ([2]; 2 months, 2-8° C.): Off-white colour | HPLC Purity ([2]; 2 months, 2-8° C.): 99.98 | Water content KF ([2]; 2 months, 2-8° C.): 0.63% | Description ([2]; 2 months, 25° C./60% RH): Off-white colour | HPLC Purity ([2]; 2 months, 25° C./60% RH): 99.98 | Water content KF ([2]; 2 months, 25° C./60% RH): 0.68% | Description ([2]; 2 months, 40° C./75% RH): Off-white colour | HPLC Purity ([2]; 2 months, 40° C./75% RH): 99.98 | Water content KF ([2]; 2 months, 40° C./75% RH): 0.78% | Description ([2]; 3 months, 2-8° C.): Off-white colour | HPLC Purity ([2]; 3 months, 2-8° C.): 99.98 | Water content KF ([2]; 3 months, 2-8° C.): 1.02% | Description ([2]; 3 months, 25° C./60% RH): Off-white colour | HPLC Purity ([2]; 3 months, 25° C./60% RH): 99.98 | Water content KF ([2]; 3 months, 25° C./60% RH): 0.92% | Description ([2]; 3 months, 40° C./75% RH): Off-white colour | HPLC Purity ([2]; 3 months, 40° C./75% RH): 99.98 | Water content KF ([2]; 3 months, 40° C./75% RH): 0.85% | Description ([2]; 6 months, 2-8° C.): Off-white colour | HPLC Purity ([2]; 6 months, 2-8° C.): 99.98 | Water content KF ([2]; 6 months, 2-8° C.): 0.79% | Description ([2]; 6 months, 25° C./60% RH): Off-white colour | HPLC Purity ([2]; 6 months, 25° C./60% RH): 99.98 | Water content KF ([2]; 6 months, 25° C./60% RH): 0.61% | Description ([2]; 6 months, 40° C./75% RH): Off-white colour | HPLC Purity ([2]; 6 months, 40° C./75% RH): 99.98 | Water content KF ([2]; 6 months, 40° C./75% RH): 0.65% | change with respect to PXRD, HPLC purity and water content ([2]; all the storage conditions (2-8° C., 25° C./60% RH, 40° C./75% RH) up to 6 months): no significant change

— patent publication US20240059661A1, “SOLID STATE FORMS OF 2-(3,5-DICHLOROPHENYL)-1,3-BENZOXAZOLE-6-CARBOXYLIC ACID OR ITS PHARMACEUTICALLY ACCEPTABLE SALTS AND POLYMORPHS THEREOF” (CIPLA LIMITED, priority 2021, published 2024)
